Where a name gives a salt, the structure may show the parent alone. Read-outs that look alike come from different tables or passages of the source.
Key:
[1] = tested on: erythroid progenitor cells (EPCs); experiment: Fetal hemoglobin (HbF) ELISA in day 7 erythroid progenitor cells; assay type: cell-based, human; conditions: Homo sapiens, Erythroid progenitor cell, HbF ELISA, day 7 EPCs, 5 days; read-out: EPC ELISA (pEC50 category) (converted)
Experimental: Day 7 EPCs were cultured in duplicate plates with serially diluted Compound A for 5 days at 37° C. Wells were then analyzed for either induction of fetal hemoglobin (HbF,HbF ELISA) or cell growth (Cell Titer-Glo). In both cases, signal was normalized to vehicle-control treated cells.
Culture, Expansion, and Characterization of Day 7 Erythroid Progenitor Cells (EPC)s
All donors provided written informed consent for use of their samples, and the collection and use of the samples received institutional review board approval. All cryopreserved human bone marrow CD34+ cells used here were obtained from AlICells (Emeryville, Calif.) and were generally from different donors. The CD34+ cells were cultured to generate EPCs at day 7. Briefly, 1 million cells were cultured in 5% CO2, 5% O2 at 37° C. in H3000 Stemspan media (StemCell Technologies Vancouver, BC, Canada) supplemented with 2 mM L-glutamine, 40 μg/mL human low-density lipoproteins (StemCell Technologies), 10 ng/mL recombinant human (rh) interleukin IL-3 (R&D Systems, Minneapolis, Minn.), 100 ng/mL rh stem cell factor (R&D Systems), and 0.5 U/mL rh erythropoietin (Invitrogen, Grand Island, N.Y.). Cells were split and refed on day 4 with complete culture media described above and harvested on day 7 for evaluation of erythroid marker expression and assessment of γ-globin induction. Day 7 EPCs were then frozen in liquid nitrogen at 5 to 10 million cells/mL in 95% fetal bovine serum (FBS; Invitrogen) with 5% DMSO for subsequent use.
At the time of compound treatment, frozen day 7 EPCs prepared as described above were thawed, washed once and re-suspended in complete culture media as described above with the exception of an increase of rhEPO to 3 U/mL. Cells were counted and diluted to […] for plating into assay plates. Cells were then dispensed, at 30 μL per well with Multidrop™ Combi Reagent Dispenser (Thermo Scientific), into 384-well cell culture plates into which test compounds were pre-dispensed at 100 nL/well. Black Clear Bottom (Greiner Bio-One; 781090) and White (Greiner Bio-One; 781080) plates were used for ELISA and Cell Titer-Glo assays, respectively. The final cell density in the assays is 1,000 cells per well, with final compound concentrations between 33 nM (highest) and […] (lowest) for the 22-points serial dilution.
Fetal Hemoglobin (HbF) ELISA
Coating anti-HbF Ab (Bethyl Lab; cat. A80-136A) was diluted by 100-fold in the coating buffer (0.05 M carbonate-bicarbonate, pH 9.6), and then 20 μL/well was added to a 384-well MaxiSorp ELISA plate (Thermo Fisher; cat. 464718). After 1 hour incubation at room temperature, the plates were washed twice with ELISA washing buffer (50 mM Tris, 0.05% Tween 20, pH 8.0) with an EL406 plate washer (BioTek, Winooski, Vt.). Then, 40 μL/well of blocking buffer consisting of 50 mM Tris and 1% BSA (pH 8.0) was added to the plate and stored at 4° C. with cover sheet overnight, or until time of the assay. The coated ELISA plates were stable for up to 30 days at 4° C. On the day of assay, the plates were washed twice with ELISA washing buffer prior to addition of cell lysate.
After 5 days at 37° C. with 5% CO2 cell culture plates for ELISA assay were put into −80° C. freezer for a minimum of 2 hours. After thawing at room temperature, 30 μL of cell lysis buffer (Invitrogen; cat. FNN0011, supplemented with 1× protease inhibitor) was added to each well and the resulting cell lysate was mixed eight times with a Cybi-Well (Jena, Germany) pipettor. Following the mixing procedure, 20 μL/well of lysate was transferred to the coated ELISA plates described above followed by a 1 hour incubation at room temperature. The ELISA assay plates were washed three times with ELISA wash buffer. 20 μL per well of 1:75,000 to 100,000 diluted horseradish peroxidase (HRP) conjugate detection antiHbF Ab (Bethyl Labs; cat. A80-136P, diluted in 50 mM Tris [pH 8.0], 1% BSA, 0.05% Tween-20) was then added. […]

DNMT1 = DNMT1 (Homo sapiens, UniProt P26358); experiment: DNMT1 biochemical activity, breaklight assay and/or SPA assay
DNMT1, sequence (P26358 whole entry, looked up): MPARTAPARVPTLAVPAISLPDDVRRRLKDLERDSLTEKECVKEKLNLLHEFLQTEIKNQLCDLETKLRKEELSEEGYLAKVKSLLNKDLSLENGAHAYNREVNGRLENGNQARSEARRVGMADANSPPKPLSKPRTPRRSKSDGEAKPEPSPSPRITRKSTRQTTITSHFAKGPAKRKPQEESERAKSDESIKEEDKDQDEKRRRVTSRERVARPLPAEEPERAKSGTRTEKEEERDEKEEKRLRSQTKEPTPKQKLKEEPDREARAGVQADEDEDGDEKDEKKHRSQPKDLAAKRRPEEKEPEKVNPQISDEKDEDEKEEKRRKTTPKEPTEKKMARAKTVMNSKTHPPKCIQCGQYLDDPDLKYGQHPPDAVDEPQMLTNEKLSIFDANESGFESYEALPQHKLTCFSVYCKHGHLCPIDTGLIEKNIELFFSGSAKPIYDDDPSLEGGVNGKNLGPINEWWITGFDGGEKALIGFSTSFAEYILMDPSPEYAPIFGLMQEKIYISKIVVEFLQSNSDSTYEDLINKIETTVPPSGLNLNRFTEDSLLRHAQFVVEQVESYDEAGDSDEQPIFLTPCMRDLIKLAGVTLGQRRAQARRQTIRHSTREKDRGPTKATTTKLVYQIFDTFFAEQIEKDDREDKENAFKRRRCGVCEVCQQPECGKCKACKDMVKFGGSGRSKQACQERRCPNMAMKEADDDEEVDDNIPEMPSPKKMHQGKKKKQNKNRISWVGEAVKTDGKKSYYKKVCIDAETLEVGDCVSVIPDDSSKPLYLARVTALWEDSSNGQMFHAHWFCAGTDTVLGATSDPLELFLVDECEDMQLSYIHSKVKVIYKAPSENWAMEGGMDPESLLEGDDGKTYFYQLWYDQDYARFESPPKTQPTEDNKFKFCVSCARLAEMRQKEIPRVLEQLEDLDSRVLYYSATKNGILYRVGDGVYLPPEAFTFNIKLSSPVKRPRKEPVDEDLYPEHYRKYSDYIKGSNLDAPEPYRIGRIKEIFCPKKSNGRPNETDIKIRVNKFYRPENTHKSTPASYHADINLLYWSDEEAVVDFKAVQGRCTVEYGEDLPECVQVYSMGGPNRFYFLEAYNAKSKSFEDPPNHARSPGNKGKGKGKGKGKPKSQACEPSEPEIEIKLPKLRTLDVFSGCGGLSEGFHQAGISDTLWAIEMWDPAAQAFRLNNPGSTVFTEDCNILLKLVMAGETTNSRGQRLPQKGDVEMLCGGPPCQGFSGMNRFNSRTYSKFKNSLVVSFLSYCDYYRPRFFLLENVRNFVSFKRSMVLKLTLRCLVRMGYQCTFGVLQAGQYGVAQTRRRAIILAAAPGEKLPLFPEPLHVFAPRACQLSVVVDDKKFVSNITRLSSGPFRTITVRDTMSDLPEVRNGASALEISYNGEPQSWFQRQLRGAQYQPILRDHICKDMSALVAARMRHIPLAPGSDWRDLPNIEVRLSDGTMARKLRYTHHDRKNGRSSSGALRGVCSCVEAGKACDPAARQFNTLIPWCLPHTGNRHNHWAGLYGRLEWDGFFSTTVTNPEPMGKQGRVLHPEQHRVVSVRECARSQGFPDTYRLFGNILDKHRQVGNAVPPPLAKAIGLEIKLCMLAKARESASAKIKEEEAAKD
Experimental: DNMT1 breaklight in vitro assays were conducted in a total volume of 50 μl in a standard 384 well format, using black non-binding surface microplates (Corning 3575). […] Negative control wells used 5 μl of DNMT1 and 5 μl of oligonucleotide but 0 μM SAM. All reagents were made up in 1× assay buffer (20 mM Tris pH 6.8, 25 mM NaCl, 0.5 mM MgCl2, 0.01% Triton X100 and 1 mM DTT). The reaction was incubated at 26° C. for 45 min and then stopped with the addition of 40 μl detection reagent. Detection reagent, made up in 1× Gla assay buffer (20 mM Tris pH 8.0, 80 mM NaCl, 0.75 mM MgCl2, 0.01% Triton X100 and 1 mM DTT) has a final concentration of 100 μM SAH (Sigma #A9384) and 0.0008 units/μl Gla1 restriction endonuclease (Sibenzyme #E494). Following addition of the detection reagent the plate was incubated in the dark at room temperature for 5 hr. Fluorescence intensity was then measured on the PHERAstar FS (BMG Labtech) at Ex 485 nm and Em 520 nm, with a gain of 400 and an integration time of 100 ms.
Biochemical activity of DNMT1 analyzed using SPA technology. Plates (Griener 784075) were pre-stamped with 100 nL/well of compound (11-point, 3-fold serial dilution). […] Low control wells contained 5 μL of buffer instead of enzyme. Following a 40 minute incubation, the reaction was quenched upon the addition of 10 μL of stop mixture containing 1 mM SAM (Sigma A7007) and 2 mg/mL PEI beads (Perkin Elmer RPNQ0098). Plates were sealed, centrifuged for 1 min and then read on a Viewlux (Perkin Elmer) using the 613 nm emission filter/300 s read time following a 30 minute dark adapt. Assay conditions prior to quench consisted of 40 nM DNMT1 (601-1600, produced internally), 100 nM 3H-SAM (American Radiolabeled Chemicals ART 0288), 900 nM SAM (New England BioLabs B9003S) and 200 nM hemi methylated DNA oligonucleotide (synthesized at Integrated DNA Technologies, 5′-[…]-3′) in 50 mM HEPES (pH 8.0), 2 mM MgCl2, 1 mM DTT, 0.01% NP-40 and 0.01% BSA.
Comments • 1. […] Where a field is empty, the compound was not tested in that assay.

[2] = binned activity in either the breaklight or the SPA assay, read-out: DNMT1 BioChemical (pIC50 category) (converted)
[3] = binned activity in either the breaklight or the SPA assay
[4] = breaklight assay and/or SPA assay, repeated experimental runs, read-out: average pIC50 against DNMT1 (converted)

EC50 [1]	DNMT1 BioChemical (pIC50 category) (DNMT1; [3])	Structure (SMILES)	other results
1000 to 31600 nM		CCc1c(C#N)c(SC(C(N)=O)c2ccccc2)nc(N2CCNCC(F)C2)c1C#N (stereo not shown) [Example 381, 2-((3,5-Dicyano-4-ethyl-6-(16-fluoro-1,4-diazepan-1-yl)pyridin-2-yl)thio)-2-phenylacetamide]	IC50 (DNMT1; [2]): 316 to 1000 nM
< 316 nM	D (Category D: ≥6.5)	CCc1c(C#N)c(SC(C(N)=O)c2ccccc2)nc(N2CCC(N3CCC[C@@H]3C)CC2)c1C#N (stereo partly drawn) [Example 453, 2-((3,5-dicyano-4-ethyl-6-(4-((S)-2-methylpyrrolidin-1-yl)piperidin-1-yl)pyridin-2-yl)thio)-2-phenylacetamide]	
< 316 nM	D (Category D: ≥6.5)	CCc1c(C#N)c(S[C@@H](C(N)=O)c2ccccc2)nc(N2CC[C@@H](NC(=O)OC(C)(C)C)[C@@H](O)C2)c1C#N [Example 533, tert-butyl ((3S,4R)-1-(6-(((R)-2-amino-2-oxo-1-phenylethyl)thio)-3,5-dicyano-4-ethylpyridin-2-yl)-3-hydroxypiperidin-4-yl)carbamate]	
316 to 1000 nM		[2H][C@](Sc1nc(N(C)C)c(C#N)c(CC)c1C#N)(C(N)=O)c1ccccc1 [Example 308, (R)-2-((3,5-Dicyano-6-(dimethylamino)-4-ethylpyridin-2-yl)thio)-2-phenylacetamide-2-d]	
< 316 nM	D (Category D: ≥6.5)	CCc1c(C#N)c(SC(C(N)=O)c2ccccc2)nc(N(C)CCN2CCCCCC2)c1C#N (stereo not shown) [Example 477, 2-((6-((2-(azepan-1-yl)ethyl)(methyl)amino)-3,5-dicyano-4-ethylpyridin-2-yl)thio)-2-phenylacetamide]	average pIC50 against DNMT1 (DNMT1; breaklight assay and/or SPA assay, repeated experimental runs): > 6.5; IC50 (DNMT1; [4]): 100 nM
< 316 nM		CCc1c(C#N)c(S[C@H](C(N)=O)c2ccccc2)nc(N2CCC(N)CC2)c1C#N [Example 605, (S)-2-((6-(4-aminopiperidin-1-yl)-3,5-dicyano-4-ethylpyridin-2-yl)thio)-2-phenylacetamide, Hydrochloride]	
< 316 nM		CCc1c(C#N)c(SC(C(N)=O)c2ccccc2)nc(N2CCC(N)CC2)c1C#N (stereo not shown) [Example 143, 2-((6-(4-Aminopiperidin-1-yl)-3,5-dicyano-4-ethylpyridin-2-yl)thio)-2-phenylacetamide]	
< 316 nM		CCc1c(C#N)c(S[C@@H](C(N)=O)c2ccccc2)nc(N2CCC(N)CC2)c1C#N [Example 412, (R)-2-((6-(4-aminopiperidin-1-yl)-3,5-dicyano-4-ethylpyridin-2-yl)thio)-2-phenylacetamide, Hydrochloride]	
< 316 nM		CCc1c(C#N)c(SC(C(N)=O)c2ccccc2)nc(N2CCC(NCC3(C)CCC3)CC2)c1C#N (stereo not shown) [Example 466, 2-((3,5-dicyano-4-ethyl-6-(4-(((1-methylcyclobutyl)methyl)amino)piperidin-1-yl)pyridin-2-yl)thio)-2-phenylacetamide]	
316 to 1000 nM		[2H]C([2H])([2H])N(c1nc(SC(C(N)=O)c2ccccc2)c(C#N)c(CC)c1C#N)C([2H])([2H])[2H] (stereo not shown) [Example 404, 2-((3,5-Dicyano-6-(dimethylamino-d6)-4-ethylpyridin-2-yl)thio)-2-phenylacetamide]	
316 to 1000 nM		[2H]C(Sc1nc(N(C)C)c(C#N)c(CC)c1C#N)(C(N)=O)c1ccccc1 (stereo not shown) [Example 305, 2-((3,5-Dicyano-6-(dimethylamino)-4-ethylpyridin-2-yl)thio)-2-phenylacetamide-2-d]	
< 316 nM		CCc1c(C#N)c(SC(C(N)=O)c2ccccc2)nc(N(C)CC(=O)N2CC[C@@H](CO)C2)c1C#N (stereo partly drawn) [Example 652, 2-((3,5-dicyano-4-ethyl-6-((2-((R)-3-(hydroxymethyl)pyrrolidin-1-yl)-2-oxoethyl)(methyl)amino)pyridin-2-yl)thio)-2-phenylacetamide]	
		CCc1c(C#N)c(SC(C(N)=O)c2ccccc2)nc(N2CC[C@@]3(CCCN3S(C)(=O)=O)[C@@H](O)C2)c1C#N (stereo partly drawn) [Example 132, 2-((3,5-Dicyano-4-ethyl-6-((5S,6S)-6-hydroxy-1-(methylsulfonyl)-1,8-diazaspiro[4.5]decan-8-yl)pyridin-2-yl)thio)-2-phenylacetamide]	IC50 (DNMT1; [2]): 316 to 1000 nM; IC50 (DNMT1; [4]): 316 to 1000 nM
		CCc1c(C#N)c(S[C@@H](C(N)=O)c2ccccc2)nc(N(C)CCOP(=O)(O)O)c1C#N [Example 421, (R)-2-((6-((2-amino-2-oxo-1-phenylethyl)thio)-3,5-dicyano-4-ethylpyridin-2-yl(methyl)amino)ethyldihydroden phosphate]	IC50 (DNMT1; [2]): 1000 to 31600 nM
	D (Category D: ≥6.5)	CCc1c(C#N)c(SC(C(N)=O)c2ccccc2)nc(N2CCC(NCCOC)CC2)c1C#N (stereo not shown) [Example 553, 2-((3,5-dicyano-4-ethyl-6-(4-((2-methoxyethyl)amino)piperidin-1-yl)pyridin-2-yl)thio)-2-phenylacetamide]	
	D (Category D: ≥6.5)	CCc1c(C#N)c(S[C@H](C(N)=O)c2ccccc2)nc(N(C)[C@@H]2CCOC2)c1C#N [Example 502, (S)-2-(3,5-dicyano-4-ethyl-6-(methyl((R)-tetrahydrofuran-3-yl)amino)pyridin-2-ylthio)-2-phenylacetamide]	

Structure (SMILES)	EC50 [1]	DNMT1 BioChemical (pIC50 category) (DNMT1; [3])	other results
CCc1c(C#N)c(S[C@@H](C(N)=O)c2ccccc2)nc(N2CCO[C@H](CN)C2)c1C#N [Example 561, (R)-2-((6-((R)-2-(aminomethyl)morpholino)-3,5-dicyano-4-ethylpyridin-2-yl)thio)-2-phenylacetamide, Hydrochloride]	< 316 nM	D (Category D: ≥6.5)	
